Experimental data: paper PMC9090717, “Fullerenemalonates inhibit amyloid beta aggregation, in vitro and in silico evaluation” (RSC Advances, 2018)
pIC50: −log10 of the molar value. Where “and” joins values, the source holds several entries; their conditions need not be identical. Equal values may be shown once. Read-outs that look alike come from different tables or passages of the source.

Experiments:
[1] = tested on: Aβ42; settings: cited from earlier work
[2] = tested on: SH-SY5Y neuroblastoma cells; settings: human, 24 h, 13 μM
Procedure: (§1) The neuroblastoma cell lines SH-SY5Y (ATCC) were grown in 25 cm^2 flasks at 37 °C with 5% CO2 in advanced DMEM/F-12 medium (Sigma-Aldrich), supplemented with 10% fetal bovine serum (Invitrogen); for cytotoxicity assay, cells were seeded at a density of 1 × 10^4 in triplicate per sample in a 96 well microplate 24 h before the treatment. The fullerenemalonates were incubated for 24 h at the corresponding concentration for their ability to inhibit Aβ42 aggregation, 13 μM. Likewise, the vehicles of each fullerenemalonate other than water (acetonitrile and ethanol) were assessed to validate its toxicity. The cell viability assay was evaluated using Thiazolyl Blue Tetrazolium Bromide (MTT, Sigma-Aldrich); based on the conversion of MTT to water-insoluble MTT-formazan of dark blue color by the mitochondrial dehydrogenases of living cells. The absorbance of formazan was measured at a wavelength of 570 nm in a plate reader, iMark Biorad. For a cytotoxic concentration (CC50) the fullerenemalonates were incubated at different concentrations followed by a cell viability assay. The CC50 was determined from the curves obtained by fitting the average absorbance values in three independent experiments in the 10–80 μM fullerenemalonate concentration range.

[3] = parameters: method as in PMID 16853553; settings: aqueous solution; cited from earlier work
[4] = tested on: SH-SY5Y neuroblastoma cells; assay: MTT cell viability assay; settings: 13 μM, 24 h, normalized to control
Procedure: as §1

1,2-(dimethoxymethano) fullerene
pIC50 ([1]; Aβ42 concentration 20 μM, read-out: IC50, inhibition of Aβ peptide aggregation): ~5.05

CCOC(=O)C1(C(=O)OCC)C23c4c5c6c7c8c4-c4c2c2c9c%10c%11c%12c(c-5c5c%13c%14c%15c%16c%17c(c-7c7c%18c%19c%20c%21c(c4C%204C(C(=O)OCC)(C(=O)OCC)C874)c2c2c9c4c%11c7c(c%13%12)c%14c8c%16c9c(c%18%17)c%19c%11c%21c2c2c4c7c8c9c%112)C%152C(C(=O)OCC)(C(=O)OCC)C652)C%1013 (stereo not drawn) [C3-C63(COOEt)6]
Cell survival rate (%) [2]: 78.59 ± 0.22%

CCOC(=O)C1(C(=O)OCC)C23c4c5c6c7c8c9c(c%10c%11c2c2c4c4c%12c5c5c6c6c8c8c%13c9c9c%10c%10c%11c%11c2c2c4c4c%12c%12c5c5c6c8c6c8c%13c9c9c%10c%10c%11c2c2c4c4c%12c5c6c5c8c9c%10c2c45)C713 [C61(COOEt)2]
Cell survival rate (%) [2]: 65.65 ± 0.29%

O=C([O-])C1(C(=O)[O-])C23c4c5c6c7c8c9c(c%10c%11c2c2c4c4c%12c5c5c6c6c8c8c%13c9c9c%10c%10c%11c%11c2c2c4c4c%12c%12c5c5c6c8c6c8c%13c9c9c%10c%10c%11c2c2c4c4c%12c5c6c5c8c9c%10c2c45)C713.[Na+].[Na+] [C61(COONa)2]
Average hydrodynamic radius Rh of self-assembled particles [3]: ≈ 32 nm
Cell survival rate (%) [4]: 64% and 64.34 ± 0.30%

sodium fullerenolate
Anti-amyloid activity in Aβ42 [1]: strong anti-amyloid activity
